ChEMBL document CHEMBL4411299, “A class of novel tubulin polymerization inhibitors exert effective anti-tumor activity via mitotic catastrophe” (Eur J Med Chem, 2019)
Active and inactive are the calls of the source. The calls are words filed in the database; no cut-off is given here.

What was measured:
HT-29 = assay: Antiproliferative activity against human HT-29 cells after 48 hrs by MTT assay; format: functional; settings: HT-29, 48 h
HepG2 = assay: Antiproliferative activity against human HepG2 cells after 48 hrs by MTT assay; format: functional; settings: HepG2, 48 h
A549 = assay: Antiproliferative activity against human A549 cells after 48 hrs by MTT assay; format: functional; settings: A549, 48 h
A2780 = assay: Antiproliferative activity against human A2780 cells after 48 hrs by MTT assay; format: functional; settings: A2780, 48 h
HeLa [1] = assay: Antiproliferative activity against human HeLa cells after 48 hrs by MTT assay; format: functional
MDA-MB-231 = assay: Antiproliferative activity against human MDA-MB-231 cells after 48 hrs by MTT assay; format: functional; settings: MDA-MB-231, 48 h
HeLa [2] = assay: Induction of apoptosis in human HeLa cells assessed as viable cells at 0.2 uM after 24 hrs by Annexin V-FITC/propidium iodide staining-based flow cytometric analysis (reference value: 92.8%); format: functional; settings: read-out: Activity
HeLa [3] = assay: Induction of apoptosis in human HeLa cells assessed as late apoptotic cells at 0.2 uM after 24 hrs by Annexin V-FITC/propidium iodide staining-based flow cytometric analysis (reference value: 3.51%); format: functional
HeLa [4] = assay: Induction of apoptosis in human HeLa cells assessed as early apoptotic cells at 0.2 uM after 24 hrs by Annexin V-FITC/propidium iodide staining-based flow cytometric analysis (reference value: 3.65%); format: functional
HeLa [5] = assay: Induction of apoptosis in human HeLa cells assessed as early apoptotic cells at 0.4 uM after 24 hrs by Annexin V-FITC/propidium iodide staining-based flow cytometric analysis (reference value: 3.65%); format: functional
HeLa [6] = assay: Cell cycle arrest in human HeLa cells assessed as accumulation of cells at G2/M phase at 0.1 to 2 uM after 6 to 24 hrs by propidium iodide staining-based flow cytometric analysis; format: functional
HeLa [7] = assay: Induction of apoptosis in human HeLa cells assessed as necrotic cells at 0.4 uM after 24 hrs by Annexin V-FITC/propidium iodide staining-based flow cytometric analysis (reference value: 0.05%); format: functional
HeLa [8] = assay: Induction of apoptosis in human HeLa cells assessed as necrotic cells at 0.2 uM after 24 hrs by Annexin V-FITC/propidium iodide staining-based flow cytometric analysis (reference value: 0.05%); format: functional
HeLa [9] = assay: Induction of apoptosis in human HeLa cells assessed as viable cells at 0.4 uM after 24 hrs by Annexin V-FITC/propidium iodide staining-based flow cytometric analysis (reference value: 92.8%); format: functional; settings: read-out: Activity
HeLa [10] = assay: Inhibition of colony formation in human HeLa cells after 2 weeks by crystal violet staining-based assay; format: functional, cell-based
HeLa [11] = assay: Induction of apoptosis in human HeLa cells assessed as late apoptotic cells at 0.4 uM after 24 hrs by Annexin V-FITC/propidium iodide staining-based flow cytometric analysis (reference value: 3.51%); format: functional
Tubulin (Homo sapiens) [12] = target: T1, Tubulin (Homo sapiens) (UniProt P68371+Q9H4B7+P0DPH7+P68366+Q13509+Q71U36+P04350+Q3ZCM7+P07437+P68363+Q9BQE3+Q6PEY2+Q13885+Q9BVA1+Q9BUF5); assay: Induction of tubulin polymerization in human HeLa cells assessed as increase in density of microtubule polymerization at 0.05 after 12 hrs by DAPI staining-based confocal fluorescence microscopic analysis; format: cell-based
Tubulin (Homo sapiens) [13] = target: T1, Tubulin (Homo sapiens); assay: Induction of tubulin polymerization in human HeLa cells assessed as induction of long thick microtubule bundles at 0.05 after 12 hrs by DAPI staining-based confocal fluorescence microscopic analysis; format: cell-based

| SMILES | GI50 (HT-29) | GI50 (HepG2) | GI50 (A549) | GI50 (A2780) | GI50 (HeLa [1]) | GI50 (MDA-MB-231) | viability at 0.2 µM (HeLa [2]) | Activity (HeLa [3]) | Activity (HeLa [4]) | Activity (HeLa [5]) | Activity (HeLa [6]) | Activity (HeLa [7]) | Activity (HeLa [8]) | viability at 0.4 µM (HeLa [9]) | inhibition (HeLa [10]) | Activity (HeLa [11]) | Activity (Tubulin (Homo sapiens) [12]) | Activity (Tubulin (Homo sapiens) [13]) |
| --- | --- | --- | --- | --- | --- | --- | --- | --- | --- | --- | --- | --- | --- | --- | --- | --- | --- | --- |
| CCCOC(=O)N1N=C(c2ccccc2)CC1c1cc(OC)c(OC)c(OC)c1 (stereo not given) | > 10 µM | > 10 µM | > 10 µM | 10.8 µM | > 10 µM | 14.4 µM |  |  |  |  |  |  |  |  |  |  |  |  |
| COC(=O)N1N=C(c2ccccc2)CC1c1ccccc1 (stereo not given) | > 10 µM | > 10 µM | > 10 µM | > 10 µM | > 10 µM | > 10 µM |  |  |  |  |  |  |  |  |  |  |  |  |
| COC(=O)N1N=C(c2ccccc2)CC1c1ccc(OC)c(OC)c1 (stereo not given) | 10.7 µM | 9.15 µM | 7.32 µM | 29.9 µM | 5.48 µM | 8.94 µM |  |  |  |  |  |  |  |  |  |  |  |  |
| COC(=O)N1N=C(c2ccccc2)CC1c1c(OC)cc(OC)cc1OC (stereo not given) | > 10 µM | 7.49 µM | 5.88 µM | > 10 µM | 3.49 µM | 10.6 µM |  |  |  |  |  |  |  |  |  |  |  |  |
| COC(=O)N1N=C(c2cccc(Cl)c2)CC1c1cc(OC)c(OC)c(OC)c1 (stereo not given) | 0.14 µM | 1.24 µM | 0.34 µM | 1.54 µM | 0.16 µM | 0.11 µM | 93% | 3.19% | 3.3% | 3.26% | Active | 0.511% | 0.481% | 93.1% | Dose-dependent effect | 3.13% |  |  |
| COC(=O)N1N=C(c2ccccc2)CC1c1cc(OC)c(OC)c(OC)c1 (stereo not given) | 6.26 µM | 3.95 µM | 2.88 µM | 2.77 µM | 2.18 µM | 1.08 µM |  |  |  |  |  |  |  |  |  |  |  |  |
| COc1cc(C2CC(c3ccccc3)=NN2C(=O)OCc2ccccc2)cc(OC)c1OC (stereo not given) | > 10 µM | > 10 µM | > 10 µM | > 10 µM | > 10 µM | > 10 µM |  |  |  |  |  |  |  |  |  |  |  |  |
| CCOc1cccc(C2=NN(C(=O)OC)C(c3cc(OC)c(OC)c(OC)c3)C2)c1 (stereo not given) | 4.45 µM | 8.36 µM | 5.29 µM | 0.76 µM | 4.97 µM | 0.19 µM |  |  |  |  |  |  |  |  |  |  |  |  |
| COC(=O)N1N=C(c2ccccc2)CC1c1ccc(OC)c(O)c1 (stereo not given) | 3.5 µM | 9.81 µM | 8.93 µM | 4.96 µM | 7.52 µM | 14.5 µM |  |  |  |  |  |  |  |  |  |  |  |  |
| COC(=O)N1N=C(c2ccccc2)CC1c1cc(OC)c(OC)cc1OC (stereo not given) | 14.9 µM | 6.53 µM | 5.32 µM | > 10 µM | 2.47 µM | > 10 µM |  |  |  |  |  |  |  |  |  |  |  |  |
| CCOC(=O)N1N=C(c2ccc(OC)cc2)CC1c1cc(OC)c(OC)c(OC)c1 (stereo not given) | 6.73 µM | 9.4 µM | 4.69 µM | 9.27 µM | 8.71 µM | 2.66 µM |  |  |  |  |  |  |  |  |  |  |  |  |
| CC(=O)O[C@H]1C(=O)[C@@]2(C)[C@H]([C@H](OC(=O)c3ccccc3)[C@]3(O)C[C@H](OC(=O)[C@H](O)[C@@H](NC(=O)c4ccccc4)c4ccccc4)C(C)=C1C3(C)C)[C@]1(OC(C)=O)CO[C@@H]1C[C@@H]2O |  |  |  |  |  |  |  |  |  |  |  |  |  |  |  |  | Active | Active |
| CCCOC(=O)N1N=C(c2cccc(O)c2)CC1c1cc(OC)c(OC)c(OC)c1 (stereo not given) | 15.2 µM | > 10 µM | > 10 µM | 11.1 µM | > 10 µM | 10 µM |  |  |  |  |  |  |  |  |  |  |  |  |
| COc1cccc(C2=NN(C(=O)OCc3ccccc3)C(c3cc(OC)c(OC)c(OC)c3)C2)c1 (stereo not given) | > 10 µM | > 10 µM | > 10 µM | > 10 µM | > 10 µM | > 10 µM |  |  |  |  |  |  |  |  |  |  |  |  |
